Assay results: ChEMBL document CHEMBL3392926, “Antiprotozoal Activity Profiling of Approved Drugs: A Starting Point toward Drug Repositioning”

Legend:
cells [1] = type: functional, cell-based; settings: Mus musculus, NMRI, BalbC or CD1 mice, Macrophage, 96 h
Description: DNDI: Cytotoxicity in Vitro, 96 hour, in mouse macrophages (infected-amastigotes)

cells [2] = type: functional, cell-based; settings: Rattus norvegicus, L6, 72 h
Description: DNDI: Cytotoxicity in Vitro, 72 hour, in rat skeletal myoblast cells

Leishmania donovani [3] = assay: microbe, parasite or virus in culture; type: functional, organism-based, MHOM/ET/67/L82; settings: Leishmania donovani, MHOM/ET/67/L82, 72 h
Description: DNDI: Leish (axenic) in Vitro, 72 hour

Leishmania donovani [4] = assay: microbe, parasite or virus in culture; type: functional, organism-based, MHOM/ET/67/L82; settings: Leishmania donovani, MHOM/ET/67/L82, 96 h
Description: DNDI: Leish (macro) in Vitro, 96 hour

[5] = test system: Trypanosoma brucei rhodesiense; assay: microbe, parasite or virus in culture; type: functional, organism-based, STIB 900; settings: Trypanosoma brucei, STIB 900, 72 h
Description: DNDI: HAT in Vitro, 72 hour

Plasmodium falciparum = assay: microbe, parasite or virus in culture; type: functional, organism-based, K1; settings: Plasmodium falciparum, K1, 72 h
Description: DNDI: Malaria in Vitro, 72 hour

Compound	IC50 (cells [1]) [µM]	IC50 (cells [2]) [µM]	IC50 (Leishmania donovani [3]) [µM]	IC50 (Leishmania donovani [4]) [µM]	IC50 [5] [µM]	IC50 (Plasmodium falciparum) [µM]
Cc1cn([C@H]2C[C@H](N=[N+]=[N-])[C@@H](CO)O2)c(=O)[nH]c1=O [ZIDOVUDINE]	> 112	207	> 374	> 112		
Nc1ccc(S(=O)(=O)c2ccc(N)cc2)cc1 [DAPSONE]	> 121	204	> 403	> 121		
Cc1ncc([N+](=O)[O-])n1CC(O)CCl (stereo not drawn) [ORNIDAZOLE]	> 136	> 408	> 136	> 136	25.9	
Cc1ncc([N+](=O)[O-])n1CCO [METRONIDAZOLE]	> 175	339		> 175		
Cc1nc2ccccn2c(=O)c1CCN1CCC(C(=O)c2ccc(F)cc2)CC1 [PIRENPERONE]	> 76.2	232		> 76.2	30	4.35
CNCC[C@H](Oc1ccc(C(F)(F)F)cc1)c1ccccc1	32.3	15				
OCCN1CCN(CCCN2c3ccccc3Sc3ccc(C(F)(F)F)cc32)CC1 [FLUPHENAZINE]	22.9	11.5				
CC(C)CN(C[C@@H](O)[C@H](Cc1ccccc1)NC(=O)O[C@H]1CCOC1)S(=O)(=O)c1ccc(N)cc1	> 59.3	160		> 59.3	28.5	15.2
CCN(CC)CCOc1ccc(/C(=C(/Cl)c2ccccc2)c2ccccc2)cc1 [ENCLOMIPHENE]	24.6	13.1				
Cc1oncc1C(=O)Nc1ccc(C(F)(F)F)cc1 [LEFLUNOMIDE]	> 111	124	21.8	> 111		> 18.5
CN(C)CCCN1c2ccccc2CCc2ccc(Cl)cc21 [CLOMIPRAMINE]	31.8	19.8				
CCn1cc(C(=O)O)c(=O)c2cc(F)c(N3CCNCC3)nc21 [ENOXACIN]	> 93.7	25	> 312	> 93.7		76.8
C[C@H](N)C12CC3CC(CC(C3)C1)C2	> 167	311		> 167	13.8	0.97
CC(=O)OCC(CCn1cnc2cnc(N)nc21)COC(C)=O [FAMCICLOVIR]	> 93.4	180	> 311	> 93.4		> 156
O=C(O)COCCN1CCN(C(c2ccccc2)c2ccc(Cl)cc2)CC1 (stereo not drawn) [CETIRIZINE]	> 70.5	149		> 70.5	99.5	20
Nc1nc2c(ncn2COC(CO)CO)c(=O)[nH]1 [GANCICLOVIR]	> 118	179	> 392	> 118		> 196
CN/C(=N\CCSCc1nc[nH]c1C)NC#N [CIMETIDINE]	> 119	302	> 396	> 119	> 396	29.2
Nc1nc(O)c2ncn(CCC(CO)CO)c2n1 [PENCICLOVIR]	> 118	220	> 395	> 118	> 395	
O=C(O)c1nn(Cc2ccc(Cl)cc2Cl)c2ccccc12 [LONIDAMINE]	> 93.4	273	8.66	> 93.4		> 15.6
CSc1ccc2c(c1)N(CC[C@H]1CCCCN1C)c1ccccc1S2	> 81	> 243				
Cc1cn([C@H]2C=C[C@@H](CO)O2)c(=O)[nH]c1=O [STAVUDINE]	> 134	266	> 446	> 134		
NC(=O)c1cnccn1 [PYRAZINAMIDE]	> 244	458	> 812	> 244	> 812	
Clc1ccc2c(c1)C(N1CCNCC1)=Nc1ccccc1O2 [AMOXAPINE]	31.9	16.2				
